Data on 35 compounds can be found in ChEMBL document CHEMBL3120106, “Novel compounds lowering the cellular isoform of the human prion protein in cultured human cells” (Bioorg Med Chem, 2014).

The nature of series [1]: Cmax in CD-1 mouse plasma at 10 mg/kg, po administered via gavage as single dose by LC/MS/MS analysis. It counts as ADME, organism-based. Set-up: dose 10 mg/kg, route oral.
The test system of series [2] is T98G. The series can be described thus: cells. The note with it: Homo sapiens, 48 h.
Series [3] can be described thus: Cmax in CD-1 mouse brain at 10 mg/kg, ip administered as single dose by LC/MS/MS analysis. The format is ADME, organism-based. Set-up: dose 10 mg/kg, route intraperitoneal.
Series [4] in a line: Cmax in CD-1 mouse brain at 10 mg/kg, po administered via gavage as single dose by LC/MS/MS analysis. It counts as ADME, organism-based. Set-up: dose 10 mg/kg, route oral.
Series [5] relates to T98G. The experiment in a line: Cytotoxicity against human T98G cells assessed as decrease in cell viability after 2 days by calcein AM assay. It counts as cell-based. The following applies: 48 h, read-out: LC50 (the source's name).
Series [6] deals with Liver microsome. The series can be described thus: Half life in human liver microsomes at 1 uM by LC/MS/MS analysis. It counts as ADME.
The nature of series [7]: Metabolic stability in mouse liver microsomes assessed as compound remaining at 1 uM after 60 mins by LC/MS/MS analysis. The following applies: 1 h. It counts as ADME, Microsome.
The subject of series [8] is Liver microsome. The series can be described thus: Metabolic stability in human liver microsomes assessed as compound remaining at 1 uM after 60 mins by LC/MS/MS analysis. It counts as ADME. The note with it: 1 h.
Series [9] in a line: Half life in mouse liver microsomes at 1 uM by LC/MS/MS analysis. It counts as ADME, Microsome.
A short description of series [10]: Cytotoxicity against mouse N2a-cl3 cells assessed as cell viability after 2 days by calcein AM assay. It counts as cell-based. The note with it: n2a-cl3, 48 h.
A short description of series [11]: Decrease in PrPc expression on mouse N2a-cl3 cell surface after 2 days by ELISA. It counts as functional, cell-based.

Active and inactive are the calls of the source. The calls are words filed in the database; no cut-off is given here.

Consider `COc1ccccc1C(=O)N1CCN(c2ccccc2OC)CC1`, for which the Cmax in series [1] was less than 100 nM; in series [3], no more than 16200 nM; in series [4], less than 100 nM. In [2], this compound had an EC50 of 3240 nM.
As for `O=C(Cc1ccc(Cl)cc1)NCc1ccccc1`, the CC50 in series [5] was greater than 10000 nM. In [2], this compound had an EC50 greater than 10000 nM.
`CN(C)c1ccc2c(c1)OC(N)=C(C#N)C2c1ccccc1` (centres undefined): the maximum concentration (Cmax) in series [1] is less than 100 nM; in [3] it was no more than 16200 nM; in series [4] it was less than 100 nM.
Regarding `CCOc1ccc2c(c1)C(C)=CC(C)(C)N2S(=O)(=O)c1ccc(C)cc1`, the Cmax was less than 100 nM in series [1], no more than 16200 nM in [3] and less than 100 nM in series [4]. Further, the concentration giving a half-maximal response (EC50) in series [2] stood at 690 nM.
Take `CN(C)c1ccc2c(c1)OC(N)=C(C#N)C2c1cccc(F)c1` (centres undefined): the highest concentration (Cmax) in series [1] was less than 100 nM; in [3] it was no more than 16200 nM; in [4], less than 100 nM. In series [2], this compound returned an EC50 of 30 nM.
Turning to `O=C(Cc1ccc(Br)cc1)NCc1ccccc1`, in series [5], the CC50 is greater than 10000 nM. Also, in series [2], the half-maximal effective concentration (EC50) is 2330 nM.
For the compound `O=C(Cc1ccc(-c2ccccc2)cc1)NCc1ccccc1`, the t1/2 in series [6] was determined as 10.3 min; in [9], 18.5 min. Further, the Stability in [7] is 5.8%; in series [8], 4.6%. Also, the CC50 in series [5] was greater than 10000 nM. Also, the values for the maximum concentration (Cmax) in [1], in [3] and in series [4] were less than 100 nM, no more than 16200 nM and less than 100 nM, respectively. This compound returned an EC50 in [2] of 440 nM.
For the compound `COc1cc(OC)cc(C(=O)Nc2ccc(I)cn2)c1`, the Activity result in series [10] was “Non-toxic”. Further, the peak concentration (Cmax) in [1] was less than 100 nM; in series [3], no more than 16200 nM; in series [4], less than 100 nM. Moreover, the EC50 in series [2] worked out at 1310 nM. Besides, the inhibition result in series [11] was “Active”.
For the compound `Cc1nc2sccn2c1-c1csc(Nc2ccc(N(C)C)nc2)n1`, the Cmax is less than 100 nM in [1], no more than 16200 nM in series [3] and less than 100 nM in series [4]. In series [2], this compound yielded an EC50 of 220 nM.
As for `CC1=CC(C)(C)N(S(=O)(=O)c2ccc(C)cc2)c2cc(C)ccc21`, the figures for the Cmax in series [1], in [3] and in [4] were less than 100 nM, no more than 16200 nM and less than 100 nM, respectively. The compound also showed a 50% effective concentration (EC50) in series [2] of 3770 nM.
Regarding `Cc1c(C(=O)OC(C)C)[nH]c2c1C(=O)CC(c1cccs1)C2` (centres undefined), the t1/2 is recorded as 9.9 min in [6] and 3.2 min in [9]. Moreover, the Stability in [7] turned out to be 0.1%; in series [8], 1.6%. Also, the values for the Cmax in series [1], in series [3] and in series [4] were less than 100 nM, no more than 16200 nM and less than 100 nM, respectively. This compound displayed a half-maximal effective concentration (EC50) in series [2] of 240 nM.
With `Cc1cc(C)c(S(=O)(=O)NCc2ccncc2)c(C)c1`, the highest concentration (Cmax) in series [1] was less than 100 nM; in [3], no more than 16200 nM; in [4] it was less than 100 nM. This compound registered an EC50 in [2] of 4130 nM.
Regarding `COc1ccc(S(=O)(=O)N2CCOc3ccccc32)cc1`, the values for the t1/2 in [6] and in series [9] were 2 min and 0.7 min, respectively. Besides, the Stability in series [7] and in [8] was 0% in each case. Moreover, the maximum concentration (Cmax) was less than 100 nM in series [1], no more than 16200 nM in series [3] and less than 100 nM in series [4]. In series [2], this compound had an EC50 of 1320 nM.
Regarding `COc1ccc(Cl)cc1C(=O)N1CCN(c2cccc(Cl)c2)CC1`, the t1/2 in series [6] was 6 min; in series [9] it was 3 min. For the same compound, the Stability in [7] and in [8] was 0.1% throughout. Also, the peak concentration (Cmax) in [1] was less than 100 nM; in [3], no more than 16200 nM; in series [4], less than 100 nM. In [2], this compound displayed an EC50 of 170 nM.
As for `COc1cccc(N2CCN(C(=O)c3cc(C)ccc3OC)CC2)c1`, the results for the t1/2 in [6] and in [9] were 4.5 min and 1.6 min, respectively. Also, the Stability in [7] came out at 0%; in [8], 1%. The Cmax in [1] is less than 100 nM; in series [3] it was no more than 16200 nM; in [4] it was less than 100 nM. The compound further returned an EC50 in series [2] of 270 nM.
On to `Cc1ccn2c(-c3csc(Nc4ccc(N(C)C)cc4)n3)c(C)nc2c1`, for which a half-maximal effect in series [2] (EC50) was put at 110 nM.
As for `CCOc1ccc(Nc2nc(-c3c(C)nc4sccn34)cs2)cc1`, the figures for the t1/2 in series [6] and in [9] were 9.6 min and 4.5 min, respectively. The Stability was 0.5% in series [7] and 1.5% in series [8]. The figures for the peak concentration (Cmax) in series [1], in series [3] and in [4] were less than 100 nM, no more than 16200 nM and less than 100 nM, respectively. A half-maximal response in series [2] (EC50) required 30 nM.
As to `COc1ccc(Cl)cc1C(=O)N1CC(=O)Nc2ccccc21`, the maximum concentration (Cmax) in series [1] was less than 100 nM; in series [3], no more than 16200 nM; in series [4], less than 100 nM. The midpoint of the response in [2], the EC50, lay at 650 nM.
As to `CCN(CC)c1ccc2c(c1)OC(N)=C(C#N)C2c1ccccc1` (centres undefined), the Cmax in series [1] was less than 100 nM; in [3], no more than 16200 nM; in [4] it was less than 100 nM. Also, the response in series [2] was half-maximal at 170 nM (EC50).
For `N#Cc1c(NC(=O)CCc2cccs2)sc2c1CCCC2`, the Cmax is less than 100 nM in series [1], no more than 16200 nM in series [3] and less than 100 nM in [4]. The compound also registered a concentration for a half-maximal effect (EC50) in [2] of 150 nM.
For `CCOC(=O)c1[nH]c2c(c1C)C(=O)CC(c1ccccc1Cl)C2` (centres undefined), the values for the Cmax in series [1], in series [3] and in series [4] were less than 100 nM, no more than 16200 nM and less than 100 nM, respectively. Also, the EC50 in series [2] worked out at 450 nM.
`COc1cc(C(=O)c2cc(Cl)ccc2N)cc(OC)c1OC`: the Cmax in series [1] was less than 100 nM; in series [3] it was no more than 16200 nM; in series [4] it was less than 100 nM. The compound also registered a half-maximal effective concentration (EC50) in series [2] of 90 nM.
On to `O=C(Nc1ccc(I)cn1)c1cccc(F)c1`, for which the Cmax was less than 100 nM in [1], no more than 16200 nM in series [3] and less than 100 nM in series [4]. Also, a half-maximal response in series [2] (EC50) required 450 nM.
In the case of `NC(=O)c1ccccc1NC(=O)c1cccnc1N1CCCCC1`, the values for the t1/2 in [6] and in series [9] were 16.7 min and 2.8 min, respectively. Also, the Stability amounted to 0% in series [7] and 8.3% in series [8]. In series [10], the Activity entry is recorded as “Non-toxic”. In addition, the Cmax is less than 100 nM in series [1], no more than 16200 nM in [3] and less than 100 nM in series [4]. The compound further gave a concentration giving a half-maximal response (EC50) in [2] of 1020 nM. The inhibition entry in series [11] is “Active”.
`CCOC(=O)c1[nH]c(C)c(C(=O)c2ccc(C)cc2)c1C`: the Cmax in series [1] is less than 100 nM; in series [3], no more than 16200 nM; in series [4], less than 100 nM. Besides, a half-maximal effect in [2] (EC50) was put at 530 nM.
Take `COc1ccc(CC(=O)NCc2ccccc2)cc1`: the CC50 in series [5] is greater than 10000 nM. The compound also displayed an EC50 in [2] of 3130 nM.
As to `CCc1nnc(NC(=O)c2ccoc2COc2ccccc2)s1`, the results for the maximum concentration (Cmax) in series [1], in [3] and in series [4] were less than 100 nM, no more than 16200 nM and less than 100 nM, respectively. Besides, the concentration for a half-maximal effect (EC50) in series [2] worked out at 2240 nM.
On to `CCOC(=O)c1[nH]c2c(c1C)C(=O)CC(c1ccco1)C2` (centres undefined), for which the Activity result in series [10] was “Non-toxic”. In series [2], this compound showed a 50% effective concentration (EC50) of 680 nM. In addition, in [11], the inhibition entry was “Active”.
In the case of `COC(=O)c1[nH]c2c(c1C)C(=O)CC(c1cccs1)C2` (centres undefined), the results for the Cmax in series [1], in [3] and in series [4] were less than 100 nM, no more than 16200 nM and less than 100 nM, respectively. Further, the response in series [2] was half-maximal at 410 nM (EC50).
As to `CCOC(=O)c1[nH]c2c(c1C)C(=O)CC(c1ccccc1)C2` (centres undefined), the Cmax is less than 100 nM in series [1], no more than 16200 nM in series [3] and less than 100 nM in [4]. Besides, the half-maximal effective concentration (EC50) in series [2] stood at 110 nM.
The compound `CN(C)c1ccc2c(c1)OC(N)=C(C#N)C2c1cccs1` (centres undefined) had an EC50 in [2] of 220 nM.
In the case of `CCOc1ccccc1C1C(C#N)=C(N)Oc2cc(N(C)C)ccc21` (centres undefined), the t1/2 in [6] is 9.7 min; in [9], 1.9 min. Further, the Stability in series [7] stood at 0.1%; in series [8], 1.3%. The Cmax in [1] was less than 100 nM; in series [3], no more than 16200 nM; in series [4], less than 100 nM.
As for `O=C(Nc1ccncc1)C1CCCN1S(=O)(=O)c1ccc2ccccc2c1` (centres undefined), the Cmax in series [1] is less than 100 nM; in series [3], no more than 16200 nM; in series [4], less than 100 nM. The compound further showed a concentration for a half-maximal effect (EC50) in series [2] of 1520 nM.
Consider `COc1ccc(Cl)cc1NS(=O)(=O)c1ccc(N2CCCC2=O)cc1`, for which the highest concentration (Cmax) in series [1] was less than 100 nM; in [3] it was no more than 16200 nM; in series [4] it was less than 100 nM. In series [2], this compound came in with a 50% effective concentration (EC50) of 510 nM.
As to `Cc1nc2ncccn2c1-c1csc(Nc2ccc(Cl)cc2)n1`, in [2], the half-maximal effective concentration (EC50) was determined as 2440 nM.
